This note sets out measurements from PubChem BioAssay AID248 (DTP/NCI, 2004).

SMILES strings stand for the structures. Several values for one entry are separate records, joined by “and”; a condition that tells them apart may be missing. Equal values may be shown once. Toxic doses and inconclusive results are not listed.

This assay relates to L1210 leukemia ip in BDF1 mice, survival T/C. As to the kind of experiment: NCI In Vivo Anticancer Drug Screen. Data for tumor model L1210 Leukemia (intraperitoneal) in B6D2F1 (BDF1) mice. To be noted: endpoint: mean survival time, higher = longer survival. In short, it runs like this:
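Read-out is survival time, reported as the treated-group measurement over the vehicle-control measurement.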

[1] abbreviates: dose: 100.0 mg/kg/injection, schedule: Q01DX009 (ip), vehicle: Klucel (hydroxypropylcellulose) (HPC).
[2] abbreviates: dose: 200.0 mg/kg/injection, schedule: Q01DX009 (ip), vehicle: Klucel (hydroxypropylcellulose) (HPC).
Setting [3] is: dose: 400.0 mg/kg/injection, schedule: Q01DX009 (ip), vehicle: Klucel (hydroxypropylcellulose) (HPC).
Where [4] appears, read: dose: 100.0 mg/kg/injection, schedule: Q04DX003 (ip), vehicle: saline with Tween-80.
Setting [5] is: dose: 200.0 mg/kg/injection, schedule: Q04DX003 (ip), vehicle: saline with Tween-80.
[6] abbreviates: dose: 400.0 mg/kg/injection, schedule: Q04DX003 (ip), vehicle: saline with Tween-80.

On to `O=C(NNC1CCN(Cc2ccccc2)CC1)c1ccccc1`, for which the T/C is, setting by setting: (dose: 10.0 mg/kg/injection, schedule: Q01DX009 (ip), vehicle: saline with Tween-80) 95 % of control; (dose: 10.0 mg/kg/injection, schedule: Q04DX003 (ip), vehicle: saline with Tween-80) 100 % of control; (dose: 20.0 mg/kg/injection, schedule: Q01DX009 (ip), vehicle: saline with Tween-80) 103 % of control; (dose: 20.0 mg/kg/injection, schedule: Q04DX003 (ip), vehicle: saline with Tween-80) 102 % of control; (dose: 40.0 mg/kg/injection, schedule: Q01DX009 (ip), vehicle: saline with Tween-80) 93 % of control; (dose: 40.0 mg/kg/injection, schedule: Q04DX003 (ip), vehicle: saline with Tween-80) 106 % of control.
`CC[N+](C)(CC)CCN1c2ccccc2Sc2ccccc21`: the T/C is 91 % of control (dose: 12.5 mg/kg/injection, schedule: Q04DX003 (ip), vehicle: saline); 94 % of control and 86 % of control (dose: 25.0 mg/kg/injection, schedule: Q04DX003 (ip), vehicle: saline); 86 % of control and 88 % of control (dose: 50.0 mg/kg/injection, schedule: Q04DX003 (ip), vehicle: saline).
Regarding `CN(C)C(=O)Sc1cc(Cl)c(S(=O)(=O)F)cc1Cl`, the T/C under setting [1] is 97 % of control, the T/C under setting [2] was 100 % of control and the T/C under setting [3] was 90 % of control.
In the case of `CC1CN1P(=S)(Oc1ccccc1)N1CC1C` (configuration not stated), the T/C was 94 % of control (dose: 7.0 mg/kg/injection, schedule: Q01DX015 (ip), vehicle: carboxymethylcellulose (CMC)); 98 % of control (dose: 13.0 mg/kg/injection, schedule: Q01DX015 (ip), vehicle: carboxymethylcellulose (CMC)); 97 % of control (dose: 25.0 mg/kg/injection, schedule: Q01DX015 (ip), vehicle: carboxymethylcellulose (CMC)); 91 % of control (dose: 50.0 mg/kg/injection, schedule: Q01DX015 (ip), vehicle: carboxymethylcellulose (CMC)); 105 % of control (dose: 100.0 mg/kg/injection, schedule: Q01DX001 (ip), vehicle: saline); 103 % of control (dose: 100.0 mg/kg/injection, schedule: Q01DX015 (ip), vehicle: carboxymethylcellulose (CMC)). Moreover, the T/C reads like this: (dose: 200.0 mg/kg/injection, schedule: Q01DX001 (ip), vehicle: saline) 102 % of control; (dose: 200.0 mg/kg/injection, schedule: Q01DX015 (ip), vehicle: saline) 95 % of control; (dose: 400.0 mg/kg/injection, schedule: Q01DX001 (ip), vehicle: saline) 100 % of control; (dose: 400.0 mg/kg/injection, schedule: Q01DX015 (ip), vehicle: saline) 91 % of control; (dose: 800.0 mg/kg/injection, schedule: Q01DX001 (ip), vehicle: saline) 95 % of control; (dose: 1600.0 mg/kg/injection, schedule: Q01DX001 (ip), vehicle: saline) 103 % of control.
Regarding `CCC(C)C(=NC)Nc1ccc(Cl)c(Cl)c1` (configuration not stated), the T/C (dose: 111.0 mg/kg/injection, schedule: Q01DX Z (ip), vehicle: methylcellulose (MC)) was 91 % of control.
For the compound `CC(C)(Br)C(=O)c1ccc(-c2ccccc2)cc1`, the T/C (dose: 25.0 mg/kg/injection, schedule: Q01DX009 (ip), vehicle: water) was 101 % of control; the T/C (dose: 50.0 mg/kg/injection, schedule: Q01DX009 (ip), vehicle: water) was 101 % of control; the T/C under setting [1] was 89 % of control; the T/C (dose: 100.0 mg/kg/injection, schedule: Q01DX009 (ip), vehicle: water) was 98 % of control; the T/C (dose: 100.0 mg/kg/injection, schedule: Q04DX003 (ip), vehicle: Klucel (hydroxypropylcellulose) (HPC)) was 100 % of control; the T/C under setting [2] was 87 % of control. The T/C is 95 % of control (dose: 200.0 mg/kg/injection, schedule: Q01DX009 (ip), vehicle: water); 94 % of control (dose: 200.0 mg/kg/injection, schedule: Q04DX003 (ip), vehicle: Klucel (hydroxypropylcellulose) (HPC)); 92 % of control under setting [3]; 92 % of control (dose: 400.0 mg/kg/injection, schedule: Q01DX009 (ip), vehicle: water); 91 % of control (dose: 400.0 mg/kg/injection, schedule: Q04DX003 (ip), vehicle: Klucel (hydroxypropylcellulose) (HPC)).
As for `CN(C)C(=S)NNC(=O)c1ccc(Cl)cc1`, the T/C is 98 % of control (dose: 6.25 mg/kg/injection, schedule: Q01DX001 (ip), vehicle: saline with Tween-80); 101 % of control (dose: 12.5 mg/kg/injection, schedule: Q01DX001 (ip), vehicle: saline with Tween-80); 104 % of control (dose: 25.0 mg/kg/injection, schedule: Q01DX001 (ip), vehicle: saline with Tween-80).
As for `CC1CC(NC(=S)N(C)C)CC(C)(C)C1` (configuration not stated), the T/C is 92 % of control (dose: 50.0 mg/kg/injection, schedule: Q01DX009 (ip), vehicle: Klucel (hydroxypropylcellulose) (HPC)); 100 % of control under setting [1]; 102 % of control under setting [2].
As to `C=CCOc1ncnc2nc[nH]c12`, the T/C is, setting by setting: under setting [4], 102 % of control; under setting [5], 96 % of control; under setting [6], 101 % of control.
With `NC(=O)N(CCc1ccccc1)N=O`, the T/C was 98 % of control (dose: 6.25 mg/kg/injection, schedule: Q01DX Z (ip), vehicle: carboxymethylcellulose (CMC)); 109 % of control (dose: 12.5 mg/kg/injection, schedule: Q01DX Z (ip), vehicle: carboxymethylcellulose (CMC)); 98 % of control (dose: 25.0 mg/kg/injection, schedule: Q01DX Z (ip), vehicle: carboxymethylcellulose (CMC)); 118 % of control (dose: 50.0 mg/kg/injection, schedule: Q01DX Z (ip), vehicle: carboxymethylcellulose (CMC)); 103 % of control (dose: 75.0 mg/kg/injection, schedule: Q01DX Z (ip), vehicle: carboxymethylcellulose (CMC)); 114 % of control (dose: 100.0 mg/kg/injection, schedule: Q01DX Z (ip), vehicle: carboxymethylcellulose (CMC)). Besides, the T/C by setting is: (dose: 150.0 mg/kg/injection, schedule: Q01DX Z (ip), vehicle: carboxymethylcellulose (CMC)) 120 % of control; (dose: 200.0 mg/kg/injection, schedule: Q01DX Z (ip), vehicle: carboxymethylcellulose (CMC)) 111 % of control.
For `O=NN(CCCl)C(=O)N[C@H]1CCC[C@@H](C(=O)O)C1`, the T/C is 353 % of control (dose: 18.0 mg/kg/injection, schedule: Q01DX001 (ip), vehicle: Klucel (hydroxypropylcellulose) (HPC)); 426 % of control (dose: 26.0 mg/kg/injection, schedule: Q01DX001 (ip), vehicle: Klucel (hydroxypropylcellulose) (HPC)); 275 % of control (dose: 40.0 mg/kg/injection, schedule: Q01DX001 (ip), vehicle: Klucel (hydroxypropylcellulose) (HPC)); 216 % of control (dose: 60.0 mg/kg/injection, schedule: Q01DX001 (ip), vehicle: Klucel (hydroxypropylcellulose) (HPC)).
Take `C=C(C)C(=O)N(C)C`: the T/C was 105 % of control (dose: 100.0 mg/kg/injection, schedule: Q01DX009 (ip), vehicle: saline); 113 % of control (dose: 200.0 mg/kg/injection, schedule: Q01DX009 (ip), vehicle: saline); 103 % of control (dose: 400.0 mg/kg/injection, schedule: Q01DX009 (ip), vehicle: saline).
`O=NN(CCF)C(=O)Nc1ccccc1`: for the setting “dose: 18.0 mg/kg/injection, schedule: Q01DX001 (ip), vehicle: other”, the T/C was 160 % of control.
`CCN(CC)c1ccc(N=Nc2cc(Cl)ccc2Cl)c(NC(=O)CCC(=O)O)c1`: the T/C is 96 % of control under setting [4], 96 % of control under setting [5] and 95 % of control under setting [6].
Consider `O=S1(=O)N2CN3CN(C2)CN1C3`, for which the T/C reads like this: (dose: 100.0 mg/kg/injection, schedule: Q01DX001 (ip), vehicle: Klucel (hydroxypropylcellulose) (HPC)) 94 % of control; under setting [1], 97 % of control; (dose: 200.0 mg/kg/injection, schedule: Q01DX001 (ip), vehicle: Klucel (hydroxypropylcellulose) (HPC)) 102 % of control; under setting [2], 100 % of control; (dose: 400.0 mg/kg/injection, schedule: Q01DX001 (ip), vehicle: Klucel (hydroxypropylcellulose) (HPC)) 104 % of control.
Regarding `NC(=O)C(O)C(O)C(O)C(O)CO` (configuration not stated), the T/C runs as follows: (dose: 100.0 mg/kg/injection, schedule: Q04DX002 (ip), vehicle: saline) 91 % of control and 99 % of control; (dose: 200.0 mg/kg/injection, schedule: Q04DX002 (ip), vehicle: saline) 95 % of control and 96 % of control; (dose: 400.0 mg/kg/injection, schedule: Q04DX002 (ip), vehicle: saline) 95 % of control and 105 % of control.
